Assay results published in patent US11584759B2, “Macrocyclic kinase inhibitor” (HITGEN INC., priority 2018, dated 2023).
Read-outs that look alike come from different tables or passages of the source.

How the values were obtained:
[1] = target: T1, TRKA Protein (wild type) (Homo sapiens, UniProt P04629); experiment: Detection of TRK inhibitory activity (ADP-Glo kinase assay), TRKA wild type; format: biochemical; settings: 35 min at room temperature
T1 construct: purchased abcam ab60887
Protocol: (§1) An enzyme reaction buffer was prepared containing 25 mM MOPS, 5 mM MgCl2, 500 μM DTT and 0.005% Triton, and then adjusted to pH 7.5.
(§2) The test compound was diluted with DMSO to 200 times of the desired final concentration, and mixed evenly, then 3 μL of the solution was pipetted to 117 μL of enzyme reaction buffer and mixed thoroughly. Then, 3 μL of the enzyme reaction buffer containing the test compound was pipetted to a 96-well PCR plate. The positive and negative control wells were filled with 3 μL of enzyme reaction buffer containing 2.5% DMSO, respectively. TRK protein was diluted to 0.4 ng/μL with the enzyme reaction buffer, and 6 μL of diluted TRK protein was added to each well except for the well for the blank control group, in which 6 μL of the enzyme reaction buffer was added. The reaction plate was centrifuged at 1000 rpm/min for 1 minute, and the compound and TRK were pre-incubated at room temperature for 10 minutes. A mixed solution with ATP at a concentration of 160 μM and substrate at a concentration of 1 μM was prepared with the enzyme reaction buffer, and 6 μL of the mixed solution was added to each reaction well. The reaction plate was centrifuged at 1000 rpm/min for 1 minute, and incubated at room temperature for 35 minutes. After the enzyme reaction was completed, 15 μL of ADP-Glo was added to each reaction well. The reaction plate was centrifuged at 1000 rpm/min for 1 minute, and incubated at room temperature for 40 minutes. Then 15 μL of the reaction solution from each well was transferred to a 384-well plate, and then 15 μL of detection substrate was added to each corresponding well of the 384-well plate. The 384-well plate was centrifuged at 1000 rpm/min for 1 minute, and incubated at room temperature for 40 minutes. After the reaction, a microplate reader was used to read the cold luminescence signal value in the 384-well plate.
(§3) The residual viability percentage of each concentration was calculated with the following formula: Residual viability (%)=100*(Lumincompond−Luminblank control)/(Luminpostive control−Luminblank control)
(§4) Then, GraphPad 5.0 was fitted to the effect curve to calculate the IC50 value.

[2] = target: TRKA (G667C) (Homo sapiens, UniProt P04629, G667C); experiment: Detection of TRK inhibitory activity (ADP-Glo kinase assay), TRKA (G667C); format: biochemical
Chain of TRKA (G667C) (P04629 33-796 G667C): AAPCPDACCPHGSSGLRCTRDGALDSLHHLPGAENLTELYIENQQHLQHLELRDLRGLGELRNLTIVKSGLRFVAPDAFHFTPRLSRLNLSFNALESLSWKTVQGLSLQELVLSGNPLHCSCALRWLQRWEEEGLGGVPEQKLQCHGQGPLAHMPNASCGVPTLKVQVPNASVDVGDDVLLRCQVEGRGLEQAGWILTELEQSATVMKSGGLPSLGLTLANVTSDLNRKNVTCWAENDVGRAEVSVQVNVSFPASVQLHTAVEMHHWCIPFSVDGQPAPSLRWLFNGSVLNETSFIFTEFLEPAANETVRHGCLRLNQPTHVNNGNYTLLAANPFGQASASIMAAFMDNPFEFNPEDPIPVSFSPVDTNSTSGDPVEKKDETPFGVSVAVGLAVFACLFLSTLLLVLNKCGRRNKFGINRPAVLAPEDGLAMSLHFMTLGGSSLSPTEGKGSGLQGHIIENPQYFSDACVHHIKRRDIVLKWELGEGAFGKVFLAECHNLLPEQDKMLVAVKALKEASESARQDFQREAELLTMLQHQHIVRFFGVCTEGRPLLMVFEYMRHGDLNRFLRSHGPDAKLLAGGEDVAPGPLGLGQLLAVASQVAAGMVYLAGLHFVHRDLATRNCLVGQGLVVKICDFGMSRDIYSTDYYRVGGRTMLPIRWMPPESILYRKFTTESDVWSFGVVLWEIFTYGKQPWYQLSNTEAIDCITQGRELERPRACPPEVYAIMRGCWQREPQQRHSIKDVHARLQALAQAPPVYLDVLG
Protocol: as §1, §2, §3, §4

[3] = test system: Ba/F3 ETV6-NTRK3-G623R cell line; experiment: Cell experiment, CellTiter-Glo viability, Ba/F3 ETV6-NTRK3-G623R; format: cell-based; settings: Mus musculus, BaF3, 72 hours, CTG
Protocol: Cell culture and seeding: (1) cells in logarithmic growth phase were harvested and counted using a […]. The cell viability was detected by trypan blue exclusion method to ensure that the cell viability was above 90%. (2) The cell concentration was adjusted; and 90 μl of cell suspension was added to the 96-well plate.
10 μl of drug solution was added to each well in a 96-well plate inoculated with cells, triplicate per concentration.
End-point for reading: (1) The CTG reagent was thawed and the cell plate was equilibrated to room temperature for 30 minutes. (2) Equal volume of CTG solution was added to each well. (3) The plated was shaken on an orbital shaker for 5 minutes to lyse the cells. (4) The cell plate was placed at room temperature for 20 minutes to stabilize the cold light signal. (5) The cold light value was read.
GraphPad Prism 7.0 software was used to analyze the data, and nonlinear S-curve regression was fitted the data to get the dose-effect curve, and the IC50 value was calculated therefrom. Cell survival (%)=(Lumtest drug−Lumculture control)/(Lumcell control−Lumculture control)×100%.

T1 sequence (P04629 33-796): as the sequence (P04629 33-796 G667C) above, with C635G counted along it

Structure (SMILES)	IC50 [1] [nM]	IC50 [2] [nM]	other results
CCOC(=O)c1cnc2ccc3nc2c1N[C@H](C)CCOc1ccc(F)cc1[C@H]1CCCN31			ring closure, yield of all isomers (from CCOC(=O)c1cnc2ccc(Cl)nc2c1N[C@H](C)CCOc1ccc(F)cc1[C@H]1CCCN1, cn_pd bond, Pd2(dba)3/SPhos/Cs2CO3, toluene, 64.4 mM, 100.0 °C, 16.0 h): 54%
COc1ccc(CN2CC[C@H](C)Oc3ccc(F)cc3[C@H]3CCCN3c3ccc4ncnc2c4n3)c(OC)c1			ring closure, yield of all isomers (from COc1ccc(CN(CC[C@@H](C)O)c2ncnc3ccc(N4CCC[C@@H]4c4cc(F)ccc4O)nc23)c(OC)c1, ether bond, DIAD/triphenylphosphine (printed as triphenylphosphine oxide), tetrahydrofuran, 72.0 mM, 25.0 °C, 3.0 h): 72.3%
C[C@H]1CCNc2c(C(=O)O)cnc3ccc(nc23)N2CCC[C@@H]2c2cc(F)ccc2O1			ring closure, yield of all isomers (from C[C@@H](CCNc1c(C(=O)O)cnc2ccc(Cl)nc12)Oc1ccc(F)cc1[C@H]1CCCN1, cn_pd bond, Pd2(dba)3/SPhos/Cs2CO3, toluene, 62.5 mM, 100.0 °C, 16.0 h): 52%
C[C@H]1CCNc2c(C#N)cnc3ccc(nc23)N2CCC[C@@H]2c2cc(F)ccc2O1 [Example 2, (6R,14S)-9-fluoro-14-methyl-3-oxa-2,17,21,25-tetraazapentacyclo [16.6.2.0^2,^6.0^7,^12.0^22,^26]hexacosane-1(25),7,9,11,18(26),19,21,23-octane-19-nitrile]	< 50	< 50	
C[C@@H]1CCOc2ccc(F)cc2CN(C)c2ccc3ncnc(c3n2)N1 [Example 5, (13R)-6-fluoro-2,13-dimethyl-10-oxa-2,14,16,18,22-pentaazatetracyclo[13.6.2.0^4,^9.0^19,^23]tricosane-1(22),4,6,8,15(23),16,18,20-octane]	< 50	< 50	
C[C@@H]1CCOc2ccc(F)cc2[C@H]2CCCN2c2ccc3ncnc(c3n2)N1 [Example 6, (6R,16R)-9-fluoro-16-methyl-13-oxa-2,17,19,21,25-pentaazapentacyclo[16.6.2.0^2,^6.0^7,^12.0,^26]hexacosane-1(25),7,9,11,18(26),19,21,23-octane]	< 50	< 50	IC50 [3]: 42.1 nM; IC90 [3]: 94.2 nM
C[C@H]1CCNc2ncnc3ccc(nc23)N2CCC[C@@H]2c2cc(F)ccc2O1 [Example 7, (6R,14S)-9-fluoro-14-methyl-13-oxa-2,17,19,21,25-pentaazapentacyclo[16.6.2.0^2,^6.0^7,^12.0^22,^26]hexacosane-1(25),7,9,11,18(26),19,21,23-octane]	< 50	< 50	IC50 [3]: 3.6 nM; IC90 [3]: 8.7 nM
C[C@H]1CCOc2ccc(F)cc2[C@H]2CCCN2c2ccc3ncc(C#N)c(c3n2)N1 [Example 8, (6R,16S)-9-fluoro-16-methyl-3-oxa-2,17,21,25-tetraazapentacyclo [16.6.2.0^2,^6.0^7,^12.0^22,^26]hexacosane-1(25),7,9,11,18(26),19,21,23-octane-19-nitrile]	< 50		
CCOC(=O)c1cnc2ccc3nc2c1NCCCOc1ccc(F)cc1[C@H]1CCCN31 [Example 9, ethyl (6R)-9-fluoro-13-oxa-2,17,21,25-tetraazapentacyclo [16.6.2.0^2,^6.0^7,^12.0^22,^26]hexacosane-1(25),7,9,11,18(26),19,21,23-octane-19-carboxylate]	< 50	> 500	
O=C(O)c1cnc2ccc3nc2c1NCCCOc1ccc(F)cc1[C@H]1CCCN31 [Example 10, (6R)-9-fluoro-13-oxa-2,17,21,25-tetraazapentacyclo [16.6.2.0^2,^6.0^7,^12.0^22,^26]hexacosane-1(25),7,9,11,18(26),19,21,23-octane-19-carboxylic acid]	50 to 500		
N#Cc1cnc2ccc3nc2c1NCCCOc1ccc(F)cc1[C@H]1CCCN31 [Example 12, (6R)-9-fluoro-13-oxa-2,17,21,25-tetraazapentacyclo [16.6.2.0^2,^6.0^7,^12.0^22,^26]hexacosane-1(25),7,9,11,18(26),19,21,23-octane-19-nitrile]	< 50	< 50	
C[C@@H]1CCOc2ccc(F)cc2[C@@H]2CCCN2c2ccc3ncc(C#N)c(c3n2)N1 [Example 14, (6S,16R)-9-fluoro-16-methyl-3-oxa-2,17,21,25-tetraazapentacyclo [16.6.2.0^2,^6.0^7,^12.0^22,^26]hexacosane-1(25),7,9,11,18(26),19,21,23-octane-19-nitrile]	50 to 500		
C[C@@H]1CCOc2ccc(F)cc2[C@H]2CCCN2c2ccc3ncc(F)c(c3n2)N1 [Example 19, (6R,16R)-9,19-difluoro-16-methyl-13-oxa-2,17,21,25-tetraazapentacyclo[16.6.2.0^2,^6.0^7,^12.0^22,^26]hexacosane-1(25),7,9,11,18(26),19,21,23-octane]	< 50	< 50	ring closure, yield of all isomers (from C[C@H](CCOc1ccc(F)cc1[C@H]1CCCN1)Nc1c(F)cnc2ccc(Cl)nc12, cn_pd bond, SPhos Pd G3, toluene/tert-butanol, 35.0 mM, 100.0 °C, 16.0 h): 8.1%

Second part, led by results:

IC50 [1] [nM]	IC50 [2] [nM]	Structure (SMILES)	other results
< 50	< 50	CN1Cc2cc(F)ccc2OCCCNc2ncnc3ccc1nc23 [Example 3, 6-fluoro-2-methyl-10-oxa-2,14,16,18,22-pentaazatetracyclo [13.6.2.0^4,^9.0^19,^23] tricosane-1(22),4,6,8,15(23),16,18,20-octane]	
50 to 500		CN1Cc2cc(F)ccc2OCCNc2ncnc3ccc1nc23 [Example 4, 6-fluoro-2-methyl-10-oxa-2,13,15,17,21-pentaazatetracyclo [12.6.2.0^4,9.0^18,^22]docosane-1(21),4,6,8,14(22),15,17,19-octane]	
< 50	< 50	NC(=O)c1cnc2ccc3nc2c1NCCCOc1ccc(F)cc1[C@H]1CCCN31 [Example 11, (6R)-9-fluoro-13-oxa-2,17,21,25-tetraazapentacyclo [16.6.2.0^2,^6.0^7,^12.0^22,^26]hexacosane-1(25),7,9,11,18(26),19,21,23-octane-19-carboxamide]	
50 to 500		C[C@H]1CCOc2ccc(F)cc2[C@@H]2CCCN2c2ccc3ncc(C#N)c(c3n2)N1 [Example 13, (6S,16S)-9-fluoro-16-methyl-13-oxa-2,17,21,25-tetraazapentacyclo [16.6.2.0^2,^6.0^7,^12.0^22,^26]hexacosane-1(25),7,9,11,18(26),19,21,23-octane-19-nitrile]	
< 50	< 50	Fc1cnc2c(c1)[C@H]1CCCN1c1ccc3ncnc(c3n1)NCCCC2 [Example 15, (6R)-9-fluoro-2,11,17,19,21,25-hexaazapentacyclo [16.6.2.0^2,^6.0^7,^12.0^22,^26]hexacosane-1(25),7,9,11,18(26),19,21,23-octane]	
< 50	< 50	C[C@@H]1CCCc2ncc(F)cc2[C@H]2CCCN2c2ccc3ncnc(c3n2)N1 [Example 16, (6R,16R)-9-fluoro-16-methyl-2,11,17,19,21,25-hexaazapentacyclo [16.6.2.0^2,^6.0^7,^12.0^22,^26]hexacosane-1(25),7,9,11,18(26),19,21,23-octane]	
< 50	< 50	C[C@H]1Nc2ccc3ncnc(c3n2)NCCCOc2ccc(F)cc21 [Example 17, 6-fluoro-3-methyl-10-oxa-2,14,16,18,22-pentaazatetracyclo [13.6.2.0^4,^9.0^19,^23] tricosane-1 (22),4,6,8,15(23),16,18,20-octane]	ring closure, yield of all isomers (from C[C@@H](N)c1cc(F)ccc1OCCCNc1ncnc2ccc(Cl)nc12, cn_pd bond, Pd2(dba)3/SPhos/Cs2CO3, toluene, 12.2 mM, 110.0 °C, 16.0 h): 5.4%
< 50	< 50	C[C@@H]1CCOc2ccc(F)cc2[C@@H](C)Nc2ccc3ncc(F)c(c3n2)N1 [Example 18, (R,R)-6,16-difluoro-3,13-dimethyl-10-oxa-2,14,18,22-tetraazatetracyclo[13.6.2.0^4,^9.0^19,^23]tricosane-1(22),4,6,8,15(23),16,18,20-octane]	ring closure, yield of all isomers (from C[C@H](CCOc1ccc(F)cc1[C@@H](C)N)Nc1c(F)cnc2ccc(Cl)nc12, cn_pd bond, SPhos Pd G3/SPhos/Cs2CO3, toluene, 90.0 mM, 100.0 °C, 16.0 h): 8.2%
